Laboratory results reported in publication PMC7996170, “Novel Method for Quantifying AhR-Ligand Binding Affinities Using Microscale Thermophoresis” (Biosensors, 2021).
Read-outs that look alike come from different tables or passages of the source.

Tests used:
[1] = target: T1, recombinant AhR-ARNT complex (Homo sapiens, UniProt P35869); assay: Competition radioligand binding assay ([3H]TCDD displacement) on purified recombinant AhR-ARNT; conditions: for competition with [3H]TCDD (in words): 4 nM [3H]TCDD, increasing concentrations of unlabeled competitor
T1 construct: encompassing the bHLH-PAS A-PAS B domains (amino acid residues 23 to 475); His6 (N, cleaved yes); FleB (Yersinia flagellin subunit, residues 54 to 332, UniProt A1JSQ5) expression tag followed by HRV 3C site (N, cleaved yes); made in house; host or cells: E. coli BL21(DE3)
Protocol: Radioligand binding assays were performed as previously established. Briefly, for saturation experiments, 0.5 mg/mL of purified AhR-ARNT or ARNT protein was diluted in MDEG buffer (25 mM MOPS, 1 mM DTT, 1 mM EDTA, 10% glycerol, 20 mM molybdate, pH 7.5) and incubated with increasing concentrations of radioactively labeled [^3H]TCDD tracer. Reactions were supplemented with liver lysate of AhR-deficient mice (AhR^-/-, C57BL/6 background) to a final protein concentration of 5 mg/mL to reduce unspecific binding and adsorption of the tracer to plastic surfaces. Liver lysates were prepared in MDEG buffer by homogenization using the gentleMacs Dissociator (Miltenyi Biotec), followed by ultracentrifugation at 100,000× g and 4 °C for 1 h. Cytosolic fractions were collected, protein concentration determined by Bradford reaction (Protein Assay Kit, Pierce), and further diluted to a final protein concentration of 5 mg/mL in MDEG buffer. […] Subsequently, 30 μL of a Norit A charcoal suspension (100 mg/mL equilibrated in MDEG buffer) was added into each 200 µL of the reaction mixture. Samples were kept on ice for 15 min and centrifuged for another 15 min at 25,000× g and 4 °C. Following this, 150 μL of the supernatant was carefully transferred and radioactivity was measured in a liquid scintillation counter (Tri-Carb 3110TR, PerkinElmer). All samples were measured in triplicate. For competition assays, a constant concentration of [^3H]TCDD (4 nM final) was used, to which a serial dilution of unlabeled competitor molecule dissolved in DMSO was added in excess. All subsequent steps were carried out as described above. The specific binding was defined as the difference of radioactivity between the reactions supplemented with the recombinant protein and AhR-deficient (Ahr^-/-) mouse lysates. Analysis of the data and calculation of the binding constants Kd and receptor density Bmax were performed with GraphPad Prism 7 using a nonlinear regression fitting a saturation binding isotherm. For competition studies, the IC50 values were obtained by fitting a one-site competitive binding equation to the experimental data. Ki values were derived from IC50 using the Cheng–Prusoff equation [19].

[2] = target: T1, recombinant AhR-ARNT complex; assay: Label-free microscale thermophoresis (MST) ligand binding
[3] = cited from earlier work
[4] = target: T2, purified AhR-ARNT complex (recombinant hAhR23–475 with mARNT85–465) (Homo sapiens, UniProt P35869); assay: Radioligand saturation binding assay with [3H]TCDD on purified recombinant AhR-ARNT; conditions: 4 °C, 24 h
T2 construct: encompassing the bHLH-PAS A-PAS B domains (amino acid residues 23 to 475); His6 (N, cleaved yes); FleB (Yersinia flagellin subunit, residues 54 to 332, UniProt A1JSQ5) expression tag followed by HRV 3C site (N, cleaved yes); made in house; host or cells: E. coli BL21(DE3)
Protocol: Radioligand binding assays were performed as previously established. Briefly, for saturation experiments, 0.5 mg/mL of purified AhR-ARNT or ARNT protein was diluted in MDEG buffer (25 mM MOPS, 1 mM DTT, 1 mM EDTA, 10% glycerol, 20 mM molybdate, pH 7.5) and incubated with increasing concentrations of radioactively labeled [^3H]TCDD tracer. Reactions were supplemented with liver lysate of AhR-deficient mice (AhR^-/-, C57BL/6 background) to a final protein concentration of 5 mg/mL to reduce unspecific binding and adsorption of the tracer to plastic surfaces. Liver lysates were prepared in MDEG buffer by homogenization using the gentleMacs Dissociator (Miltenyi Biotec), followed by ultracentrifugation at 100,000× g and 4 °C for 1 h. Cytosolic fractions were collected, protein concentration determined by Bradford reaction (Protein Assay Kit, Pierce), and further diluted to a final protein concentration of 5 mg/mL in MDEG buffer. […] Following this, 150 μL of the supernatant was carefully transferred and radioactivity was measured in a liquid scintillation counter (Tri-Carb 3110TR, PerkinElmer). All samples were measured in triplicate. […] The specific binding was defined as the difference of radioactivity between the reactions supplemented with the recombinant protein and AhR-deficient (Ahr^-/-) mouse lysates. […]

mARNT = target: T3, mARNT (Mus musculus, UniProt P53762, C256S/DEL274-297/DEL351-358); assay: Label-free MST on mARNT alone; type: binding; conditions: Figure S3
T3 construct: Mouse ARNT (residues 85–465) was expressed as N-terminal His6-fusion protein; His6 (N); made in house; host or cells: E. coli BL21(DE3)
Protocol: Microscale thermophoresis (MST) experiments were performed according to the manufacturer’s instructions (NanoTemper Technologies GmbH) using a Monolith NT.LabelFree. In brief, 250 nM of purified AhR-ARNT proteins were diluted in assay buffer (20 mM HEPES pH 8.0, 200 mM NaCl, 5% glycerol, 5 mM DTT, and 0.1% Pluronic F-127) and incubated for 5 min, in the presence of a serial dilution of the different ligands (ligand solubilized in DMSO at a final constant concentration of 2%). After incubation, samples were filled into NT.LabelFree Zero Background MST Premium coated capillaries (NanoTemper Technologies GmbH) and measurements were taken at a constant temperature of 22 °C. MST traces were collected with an LED excitation power of 20% and an MST laser power of 20% and 40%. The MO.Control Analysis software (NanoTemper) was used to analyze the interaction affinity and the dissociation constant (Kd) for each ligand using the Kd fit model. In short, changes in the thermophoretic movement were depicted as changes in the normalized fluorescence ratio before and after heating (ΔFnorm [‰]) and plotted as a function of the ligand concentration. The resulting binding curve is fitted by the software using the best fitting method to derive binding constants and thus the Kd.

endogenous hAhR = target: endogenous hAhR; design: method as in PMID 2848187; conditions: endogenous hAhR in hepatocyte cell lysates; read-out: equilibrium dissociation constant (Kd); cited from earlier work
murine AhR = conditions: higher affinity of murine AhR than human AhR; cited from earlier work

T1 sequence (P35869 23-475): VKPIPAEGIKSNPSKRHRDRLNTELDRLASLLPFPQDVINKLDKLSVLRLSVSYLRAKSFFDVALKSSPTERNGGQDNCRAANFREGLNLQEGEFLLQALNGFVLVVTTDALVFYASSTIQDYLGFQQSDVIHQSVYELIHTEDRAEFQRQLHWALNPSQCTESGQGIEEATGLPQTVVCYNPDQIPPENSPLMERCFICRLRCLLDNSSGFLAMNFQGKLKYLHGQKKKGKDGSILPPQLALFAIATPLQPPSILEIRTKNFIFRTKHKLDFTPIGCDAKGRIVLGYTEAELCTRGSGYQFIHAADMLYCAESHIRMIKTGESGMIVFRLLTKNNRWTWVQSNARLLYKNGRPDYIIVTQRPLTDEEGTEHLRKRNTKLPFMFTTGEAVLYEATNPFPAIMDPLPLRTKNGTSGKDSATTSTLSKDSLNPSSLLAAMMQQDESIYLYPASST
T1 sequence (P53762 with tags, fused parts or gaps C256S/DEL274-297/DEL351-358 partner): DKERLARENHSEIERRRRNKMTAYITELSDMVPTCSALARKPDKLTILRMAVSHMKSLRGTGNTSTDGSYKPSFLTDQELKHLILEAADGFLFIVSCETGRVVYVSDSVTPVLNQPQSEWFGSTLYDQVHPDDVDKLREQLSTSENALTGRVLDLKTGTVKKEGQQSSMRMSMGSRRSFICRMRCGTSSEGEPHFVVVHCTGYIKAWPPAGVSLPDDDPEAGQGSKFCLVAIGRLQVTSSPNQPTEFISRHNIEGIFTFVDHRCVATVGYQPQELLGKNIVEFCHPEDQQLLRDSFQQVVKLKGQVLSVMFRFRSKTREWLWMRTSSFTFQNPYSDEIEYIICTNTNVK
T2 sequence (P35869 23-475): as the sequence (P35869 23-475) above
T2 sequence (P53762 with tags, fused parts or gaps C256S/DEL274-297/DEL351-358 partner): as the sequence (P53762 with tags, fused parts or gaps C256S/DEL274-297/DEL351-358 partner) above
T3 sequence (P53762 with tags, fused parts or gaps C256S/DEL274-297/DEL351-358): as the sequence (P53762 with tags, fused parts or gaps C256S/DEL274-297/DEL351-358 partner) above

Compound: Cc1ccccc1N=Nc1ccc(NC(=O)c2ccnn2C)c(C)c1 [CH-223191, 2-Methyl-2H-pyrazole-3-carboxylic acid (2-methyl-4-o-tolylazo-phenyl)-amide]
- Ki ([1]; displacement of 4 nM [3H]TCDD, 24 h, 4 °C, read-out: Ki (from IC50 by Cheng–Prusoff)): 12200 nM
- Kd ([2]; 250 nM AhR-ARNT, 2% DMSO, 22 °C, label-free, read-out: Kd (MST)): 496 ± 82 nM

Compound: O=Cc1c2[nH]c3ccccc3c2cc2[nH]c3ccccc3c12 [FICZ, 6-Formylindolo [3,2-b] carbazole]
- competition with [3H]TCDD (in words) ([1]; 24 h): failed to see competition
- stability in aqueous solution (in words) ([3]; tryptophan group): high instability

Compound: Clc1cc2c(cc1Cl)Oc1cc(Cl)c(Cl)cc1O2 [TCDD, 2,3,7,8-Tetrachlorodibenzo-p-dioxin]
- maximal binding capacity (Bmax) ([4]; [3H]TCDD saturation binding): 60.3 ± 17.3 pmoles/mg protein
- Kd ([4]; [3H]TCDD tracer, 0.5 mg/mL protein, AhR-/- mouse liver lysate added): 39 ± 20 nM
- competition with [3H]TCDD (in words) ([1]; 24 h): only an initial competition
- displacement of [3H]TCDD from AhR-ARNT by unlabeled competitor (in words) ([1]; increasing protein, constant [3H]TCDD, 48 h, Figure S2): displacement by unlabeled dioxin detectable
- Kd [2]: 139 ± 99 nM
- ligand-induced differences in MST traces with mARNT alone (in words) (mARNT): not when mARNT was used alone
- Kd (endogenous hAhR): 2.7 to 4.2 nM
- binding affinity of murine AhR relative to human AhR (murine AhR): ~10 fold
- solubility in water (in words) [3]: insolubility in water

Compound: Oc1cccc2nc3ccccc3nc12 [1-HP, 1-Hydroxyphenazine]
- Ki [1]: 9200 nM
- Kd [2]: 943 ± 176 nM
